The values that follow come from patent publication US10167279B2 (NOVARTIS AG, priority 2014, dated 2019).

C-Raf FL, sequence (P04049 whole entry Y340E/Y341E): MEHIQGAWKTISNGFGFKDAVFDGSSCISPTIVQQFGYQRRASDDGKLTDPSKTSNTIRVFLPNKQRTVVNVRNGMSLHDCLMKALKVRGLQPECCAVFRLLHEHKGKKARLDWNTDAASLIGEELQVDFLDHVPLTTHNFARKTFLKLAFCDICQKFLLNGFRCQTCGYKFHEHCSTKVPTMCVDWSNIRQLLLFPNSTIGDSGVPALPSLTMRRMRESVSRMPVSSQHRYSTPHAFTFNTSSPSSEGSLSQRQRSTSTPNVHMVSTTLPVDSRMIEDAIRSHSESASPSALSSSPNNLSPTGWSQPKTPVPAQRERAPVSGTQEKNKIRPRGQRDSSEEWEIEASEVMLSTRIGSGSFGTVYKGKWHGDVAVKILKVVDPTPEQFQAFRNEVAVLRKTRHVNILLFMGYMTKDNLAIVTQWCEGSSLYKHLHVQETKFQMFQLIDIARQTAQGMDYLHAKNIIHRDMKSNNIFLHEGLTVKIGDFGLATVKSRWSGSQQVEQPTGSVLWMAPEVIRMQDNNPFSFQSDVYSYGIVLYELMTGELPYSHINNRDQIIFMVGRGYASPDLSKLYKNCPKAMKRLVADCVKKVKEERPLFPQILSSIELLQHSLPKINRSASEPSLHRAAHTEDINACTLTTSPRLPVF
C-Raf FL, sequence (P63104 whole entry partner): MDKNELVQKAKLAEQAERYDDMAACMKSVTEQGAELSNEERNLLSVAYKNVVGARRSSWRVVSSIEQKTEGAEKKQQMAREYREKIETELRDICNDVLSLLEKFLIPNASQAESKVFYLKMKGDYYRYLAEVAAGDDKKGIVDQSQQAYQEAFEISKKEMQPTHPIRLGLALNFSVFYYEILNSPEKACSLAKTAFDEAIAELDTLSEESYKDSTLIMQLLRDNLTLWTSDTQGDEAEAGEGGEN

The assay addresses C-Raf FL (Homo sapiens (Human), UniProt P04049, Y340E/Y341E). The experiment in a line: In vitro Raf activity determination (Alpha Screen, phospho-MEK), C-Raf FL (full length, Y340E/Y341E). As to conditions: ATP 1 μM; 60 min pre-incubation; 1 hour reaction; column head does not say FL or TR. The assay is classed as biochemical. The method, boiled down:
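Sf9-expressed C-Raf incubated with biotinylated kinase-dead MEK1 (K97R) in 50 mM Tris pH 7.5, 15 mM MgCl2, 0.01% BSA, 1 mM DTT with compound, 60 min at room temperature. Phospho-MEK detected by anti-p-MEK AlphaScreen luminescence; IC50 by non-linear regression.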
By IC50 is commonly meant the point on the concentration scale where inhibition reaches its midpoint. Lower therefore signals inhibition by little substance. Turning to `CCOc1nnc(-c2cc(NC(=O)c3ccc4c(c3)CNC4)ccc2C)cc1C1CCOCC1` [Example 285, N-(3-(6-ethoxy-5-(tetrahydro-2H-pyran-4-yl)pyridazin-3-yl)-4-methylphenyl) isoindoline-5-carboxamid], half-maximal inhibition (IC50) was put at 0.9 nM.
As to `Cc1nc2cc(C3CCOCC3)cc(-c3cc(NC(=O)c4cnnc(C(F)(F)F)c4)ccc3C)c2[nH]1` [Example 221, N-(4-methyl-3-(2-methyl-5-(tetrahydro-2H-pyran-4-yl)-1H-benzo[d]imidazol-7-yl)phenyl)-6-(trifluoromethyl) pyridazine-4-carboxamide], the IC50 turned out to be 2 nM.
In turn, `COc1ncc(-c2cc(NC(=O)c3cc(C(F)(F)F)cc(C(C)(C)N)n3)ccc2C)cc1C1(C(F)F)COC1` [Example 149, 6-(2-aminopropan-2-yl)-N-(3-(5-(3-(difluoromethyl)oxetan-3-yl)-6-methoxypyridin-3-yl)-4-methylphenyl)-4-(trifluoromethyl)picolin-amide] gave a concentration for half-maximal inhibition (IC50) of 0.871 nM.
Consider `Cc1ccc(NC(=O)c2cc(C(F)(F)F)ccn2)cc1-c1cc(NCCO)nc(C2(O)CCOCC2)c1` [Example 303, N-(3-(2-((2-hydroxyethyl)amino)-6-(4-hydroxytetrahydro-2H-pyran-4-yl)pyridin-4-yl)-4-methylphenyl)-4-(trifluoromethyl) picolinamide], for which the concentration for half-maximal inhibition (IC50) was 1.99 nM.
Under `Cc1ccc(NC(=O)c2ccnc(C(F)(F)F)c2)cc1-c1cc2c(c(C3CCOCC3)c1)OC(C)(CO)C(=O)N2` (stereo not shown) [Example 200, N-(3-(2-(hydroxymethyl)-2-methyl-3-oxo-8-(tetrahydro-2H-pyran-4-yl)-3,4-dihydro-2H-benzo[b][1,4]oxazin-6-yl)-4-methylphenyl)-2-(trifluoromethyl) isonicotinamide] stands 0.5 nM; under `Cc1ncc(NC(=O)c2ccnc(C(C)(C)F)c2)cc1-c1cccc(C2COC2)c1` [Example 1, 2-(2-fluoropropan-2-yl)-N-(6-methyl-5-(3-(oxetan-3-yl)phenyl)pyridin-3-yl)isonicotinamide], 1 nM.
`Cc1ccc(NC(=O)c2cc(C(F)(F)F)ccn2)cc1-c1cc(OCCO)nc(C2(CO)CCOCC2)c1` [Example 219] yielded an IC50 of 0.5 nM.
Under `Cc1ccc(NC(=O)c2ccnc(C(C)(C)C#N)c2)cc1-c1cc(OCCO)nc(C2CCOCC2O)c1` (stereo not shown) [Example 246] stands 6 nM; under `CCOc1ncc(-c2cc(NC(=O)c3ccnc(C(C)(C)F)c3)cnc2C)cc1C1(O)CCOC1` (stereo not shown) [Example 296, N-(6′-ethoxy-5′-(3-hydroxytetrahydro-furan-3-yl)-2-methyl-[3,3′-bipyridin]-5-yl)-2-(2-fluoropropan-2-yl)isonicotinamide], 4 nM; under `COC1(c2cc(-c3cc(NC(=O)c4ccnc(C(C)(F)F)c4)ccc3C)cnc2OCCO)COC1` [Example 60, 2-(1,1-difluoroethyl)-N-(3-(6-(2-hydroxyethoxy)-5-(3-methoxyoxetan-3-yl)pyridin-3-yl)-4-methylphenyl)isonicotin-amide], 0.203 nM.
Turning to `CCOc1nnc(-c2cc(NC(=O)c3cc(C(F)(F)F)c[nH]c3=O)ccc2C)cc1C1CCOCC1` [Example 226, N-(3-(6-ethoxy-5-(tetrahydro-2H-pyran-4-yl)pyridazin-3-yl)-4-methylphenyl)-2-oxo-5-(trifluoromethyl)-1,2-dihydropyridine-3-carboxamide], the midpoint of inhibition, the IC50, lay at 4 nM.
Turning to `Cc1ccc(NC(=O)c2cc(C(F)(F)F)ncn2)cc1-c1cc(OC[C@H](O)CO)nc(C2CCOCC2)c1` [Example 276, (R)-N-(3-(2-(2,3-dihydroxypropoxy)-6-(tetrahydro-2H-pyran-4-yl)pyridin-4-yl)-4-methylphenyl)-6-(trifluoromethyl) pyrimidine-4-carboxamide], the IC50 was 0.06 nM.
With `Cc1ccc(NC(=O)c2cc(C(F)(F)F)ccn2)cc1-c1cc(OCCO)nc(C2CCOCC2O)c1` (single isomer, unassigned) [Example 248], 0.7 nM corresponded to half-maximal inhibition (IC50).
